Assay results taken from patent publication US7214669B2, “Tetracycline derivatives and methods of use thereof” (Tetragenex Pharmaceuticals, Inc., priority 2001, dated 2007).

What was measured:
[1] = molecular target: T1, Human recombinant MMP1 (Homo sapiens, UniProt P03956); assay: MMP1 (Collagenase-1) inhibition, 14C collagen release; type: biochemical; conditions: 35° C., 5 hours; read-out: MMP-1 inhibitory activity, IC50
T1 sequence (P03956 100-469): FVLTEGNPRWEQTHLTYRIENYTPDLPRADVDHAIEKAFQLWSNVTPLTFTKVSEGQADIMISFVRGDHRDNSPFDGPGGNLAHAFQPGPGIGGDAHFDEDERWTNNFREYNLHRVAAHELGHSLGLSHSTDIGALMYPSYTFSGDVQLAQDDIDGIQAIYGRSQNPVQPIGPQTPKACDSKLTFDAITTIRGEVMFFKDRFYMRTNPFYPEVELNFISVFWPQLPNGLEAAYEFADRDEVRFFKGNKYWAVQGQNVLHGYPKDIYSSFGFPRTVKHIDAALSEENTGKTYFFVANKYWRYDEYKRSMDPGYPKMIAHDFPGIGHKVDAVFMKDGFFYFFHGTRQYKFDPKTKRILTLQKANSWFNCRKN
Method: Protocol for Measuring MMP1 (Collagenase-1) Inhibition by Tetracycline Derivatives
MMP1 activity was determined by the release of soluble ^14C labelled collagen fragments from ^14C acetylated rat skin type I collagen (Methods in Enzymology 80 711, 1981).
• 100 μg ^14C labelled rat skin type I collagen (5–6000 dpm) • 50 mM Tris HCl pH 7.9 • 15 mM CaCl2 0.02% azide • Human recombinant MMP1 3–4 nM • ±Tetracycline (up to 1 mM) in a total volume of 300 μl.
Incubations were at 35° C. for 5 hours. Uncleaved collagen fibrils (which form within the first 10 minutes) were removed by centrifugation at 10,000 g, 4° C., 10 minutes. 200 μl supernatant were counted in Packard Opti Phase Supermix scintillation fluid using a scintillation counter. Only data derived from within the linear part of the assay (10–70% lysis of the collagen) were utilized. Based on percentage inhibition of the activity of MMP1 alone by a range of concentrations of each sample, the IC50 value for each tetracycline was calculated by linear regression analysis.

[2] = molecular target: T2, MMP2 (Gelatinase A) (Homo sapiens, UniProt P08253); assay: MMP2 (Gelatinase A) inhibition, 14C gelatin release; type: biochemical; conditions: 37° C., 16 hours; read-out: MMP-2 inhibitory activity, IC50
T2 sequence (P08253 110-660): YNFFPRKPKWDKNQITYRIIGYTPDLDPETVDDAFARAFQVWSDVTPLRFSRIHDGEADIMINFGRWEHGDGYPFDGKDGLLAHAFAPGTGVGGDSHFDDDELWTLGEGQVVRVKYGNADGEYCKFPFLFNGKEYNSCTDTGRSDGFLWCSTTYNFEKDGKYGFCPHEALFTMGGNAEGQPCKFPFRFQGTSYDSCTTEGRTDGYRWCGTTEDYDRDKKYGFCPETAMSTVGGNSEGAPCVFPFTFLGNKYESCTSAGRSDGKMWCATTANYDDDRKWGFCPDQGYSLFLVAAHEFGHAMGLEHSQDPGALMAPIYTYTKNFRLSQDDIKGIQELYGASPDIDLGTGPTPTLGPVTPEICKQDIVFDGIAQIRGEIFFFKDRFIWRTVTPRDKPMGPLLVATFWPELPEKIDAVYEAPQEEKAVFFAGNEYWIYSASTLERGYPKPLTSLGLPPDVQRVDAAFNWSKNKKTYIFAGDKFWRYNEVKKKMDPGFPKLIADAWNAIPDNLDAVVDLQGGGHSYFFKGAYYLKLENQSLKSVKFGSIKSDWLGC

[3] = molecular target: Human recombinant MMP3 (Homo sapiens, UniProt P08254); assay: MMP3 (Stromelysin 1) inhibition, 14C casein release; type: biochemical; conditions: 37° C., 16 hours; read-out: MMP-3 inhibitory activity, IC50
Human recombinant MMP3, sequence (P08254 100-477): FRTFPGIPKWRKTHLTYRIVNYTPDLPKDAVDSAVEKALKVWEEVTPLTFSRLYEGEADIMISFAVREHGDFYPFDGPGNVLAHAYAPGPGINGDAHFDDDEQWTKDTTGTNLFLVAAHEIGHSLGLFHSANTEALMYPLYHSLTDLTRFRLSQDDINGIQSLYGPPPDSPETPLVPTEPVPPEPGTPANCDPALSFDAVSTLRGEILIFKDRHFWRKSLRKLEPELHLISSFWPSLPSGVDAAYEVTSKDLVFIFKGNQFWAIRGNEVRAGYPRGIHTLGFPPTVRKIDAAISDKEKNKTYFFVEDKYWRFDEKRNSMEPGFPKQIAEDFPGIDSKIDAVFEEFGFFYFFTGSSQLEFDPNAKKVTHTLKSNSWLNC

[4] = molecular target: T3, Human recombinant MMP7 (Homo sapiens, UniProt P09237); assay: MMP7 (Matrilysin) inhibition, 14C casein release; type: biochemical; conditions: 37° C., 16 hours; read-out: MMP-7 inhibitory activity, IC50
T3 sequence (P09237 95-267): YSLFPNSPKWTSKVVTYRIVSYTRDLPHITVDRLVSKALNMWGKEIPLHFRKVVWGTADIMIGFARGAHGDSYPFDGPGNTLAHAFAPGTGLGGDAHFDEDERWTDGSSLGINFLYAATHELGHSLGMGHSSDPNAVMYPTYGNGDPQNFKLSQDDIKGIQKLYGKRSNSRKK
Method: MMP7 activity was determined by the release of trichloracetic acid, TCA, soluble fragments from ^14C acetylated β casein (Sigma) as described in Methods in Enzymology 248, 451 (1995).
• 100 μg ^14C casein (7000 dpm) • 50 mM Tris HCl, pH 7.9 • 15 mM CaCl2, 0.02% azide • Human recombinant MMP7, 1.5 nM • ±tetracycline (up to 1 mM) in a total volume of 250 μl.
Incubations were at 37° C. for 16 hours. The incubation was stopped by the addition of 500 μl cold 18% TCA and standing on ice for 15 minutes. TCA precipitates were removed by centrifugation at 10,000 g for 10 minutes at 4° C., and 200 μl supernatant was taken for scintillation counting. Only data derived from within the linear part of the assay (10–60% lysis) were utilized. The percentage inhibition of MMP7 by each concentration of the candidate tetracycline were plotted to derive the IC50 value.

[5] = molecular target: Human recombinant MMP9 (Homo sapiens, UniProt P14780); assay: MMP9 (Gelatinase B) inhibition, 14C gelatin release; type: biochemical; conditions: 37° C., 16 hours; read-out: MMP-9 inhibitory activity, IC50
Human recombinant MMP9, sequence (P14780 94-707): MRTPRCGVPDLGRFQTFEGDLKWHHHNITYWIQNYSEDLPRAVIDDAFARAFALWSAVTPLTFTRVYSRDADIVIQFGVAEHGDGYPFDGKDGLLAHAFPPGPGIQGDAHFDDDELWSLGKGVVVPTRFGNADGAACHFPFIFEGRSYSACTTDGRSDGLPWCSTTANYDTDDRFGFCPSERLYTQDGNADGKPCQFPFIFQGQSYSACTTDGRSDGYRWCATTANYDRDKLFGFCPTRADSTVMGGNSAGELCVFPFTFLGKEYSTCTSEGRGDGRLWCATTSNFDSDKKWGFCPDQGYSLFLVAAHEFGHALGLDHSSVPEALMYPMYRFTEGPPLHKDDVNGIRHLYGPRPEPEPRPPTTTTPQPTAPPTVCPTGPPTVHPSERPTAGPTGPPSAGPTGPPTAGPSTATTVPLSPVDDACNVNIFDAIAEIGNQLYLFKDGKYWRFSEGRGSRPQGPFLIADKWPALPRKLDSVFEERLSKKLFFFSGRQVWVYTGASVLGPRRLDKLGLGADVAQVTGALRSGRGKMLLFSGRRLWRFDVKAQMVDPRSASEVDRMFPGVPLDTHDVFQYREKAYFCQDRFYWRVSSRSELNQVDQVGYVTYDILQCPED
Method: Protocol for Measuring MMP9 (Gelatinase B) Inhibition
MMP9 activity was determined by the release of trichloracetic acid, TCA soluble fragments from ^14C acetylated rat skin type I (Methods in Enzymology 248, 470, 1995. Biochem. J. 195, 1981)
• 100 μg ^14C labelled gelatin (collagen denatured 60° C. 20 min) • 50 mM Tris HCl pH 7.9 • 15 mM CaCl2, 0.02% azide • Human recombinant MMP9, 1.2–2 nM • ±Tetracycline (up to 1 mM) in a total volume of 250 μl.
Incubations were at 37° C. for 16 hours. The incubations were stopped by cooling the incubations and addition of 50 μl cold 90% (w/v) trichloracetic acid with careful mixing. TCA precipitation was allowed to proceed for 15 minutes at 4° C. prior to centrifugation at 10,000 g for 10 minutes at 4° C. 200 μl of the TCA supernatant was taken for the determination of radioactive content by scintillation counting (Packard Opti Phase Supermix scintillation fluid). Only data derived from within the linear part of the assay (10–70% lysis) were utilized. The percentage inhibition of MMP9 by each tetracycline concentration were plotted to derive the IC50 value.

[6] = molecular target: Human recombinant MMP14 (Homo sapiens, UniProt P50281); assay: MMP14 (MTI-MMP) inhibition, 14C collagen release; type: biochemical; conditions: 35° C., 15 hours; read-out: MMP-14 inhibitory activity, IC50
Method: Protocol for Measuring MMP14 (MTI-MMP) Inhibition by Tetracycline Derivatives
MMP14 activity was determined by the release of soluble ^14C labelled collagen fragments from ^14C acetylated rat skin type I collagen (Methods in Enzymology 80 711, 1981).
• 100 μg ^14C labelled collagen (5–6000 dpm) • 50 mM Tris HCL pH 7.9 • 15 mM CaCl2 0.02% azide • Human recombinant MMP14 50–100 nM • ±Tetracycline (up to 1 mM) in a total volume of 300 μl.
Incubations were at 35° C. for 15 hours. Uncleaved collagen fibrils (which form within the first 10 minutes) were removed by centrifugation at 10,000 g 4° C. 10 minutes 200 μl supernatant were counted in Packard Opti Phase Supermix scintillation fluid using a scintillation counter. Only data derived from within the linear part of the assay (10–70% lysis of the collagen) were utilized. Based on percentage inhibition of the activity of MMP1 alone by a range of concentrations of each sample, the IC50 value for each tetracycline was calculated.

[7] = tested on: C8161 human melanoma cells; assay: Membrane Invasion Culture System (MICS) chemo-invasion assay; type: cell-based; conditions: 24 hours, + = increased invasiveness
Procedure, shortened: (§1)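 Fifty thousand cells were seeded above a 35 μm laminin/collagen IV/gelatin barrier on a 10 μm-pore filter, with serum-free RPMI plus 50% fibroblast-conditioned medium below as chemoattractant. Compound at 1, 10 or 25 μg/ml, or DMSO vehicle, was present for 24 h. Invaded cells were collected, Wright-stained and counted over 5 fields.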

[8] = tested on: MDA-MB-231 human breast cancer cells; assay: as above; type: cell-based; conditions: 24 hours, + = increased invasiveness
Procedure, shortened: as §1

[9] = tested on: PC-3 ML human prostate cancer cells; assay: as above; type: cell-based; conditions: 24 hours, + = increased invasiveness
Procedure, shortened: as §1

[10] = tested on: RPMI-8226 human myeloma cancer cells; assay: as above; type: cell-based; conditions: 24 hours, + = increased invasiveness
Procedure, shortened: as §1

SMILES	IC50 [1] [µM]	IC50 [2] [µM]	IC50 [3] [µM]	IC50 [4] [µM]	IC50 [5] [µM]	IC50 [6] [µM]	percent inhibition, C8161 (Melanoma) ([7]; 1 ug/mL)	percent inhibition, C8161 (Melanoma) ([7]; 10 ug/mL)	percent inhibition, C8161 (Melanoma) ([7]; 25 ug/mL)	percent inhibition, MDA-MB-231 (Breast) ([8]; 1 ug/mL)	percent inhibition, MDA-MB-231 (Breast) ([8]; 10 ug/mL)	percent inhibition, MDA-MB-231 (Breast) ([8]; 25 ug/mL)	percent inhibition, PC-3 ML (Prostrate) ([9]; 1 ug/mL)	percent inhibition, PC-3 ML (Prostrate) ([9]; 10 ug/mL)	percent inhibition, PC-3 ML (Prostrate) ([9]; 25 ug/mL)	percent inhibition, RPMI-8226 (Multiple Myeloma) ([10]; 1 ug/mL)	percent inhibition, RPMI-8226 (Multiple Myeloma) ([10]; 10 ug/mL)	percent inhibition, RPMI-8226 (Multiple Myeloma) ([10]; 25 ug/mL)
CN(C)c1cc([N+](=O)[O-])c(O)c2c1CC1CC3C(N(C)C)C(O)=C(C(N)=O)C(=O)C3(O)C(O)=C1C2=O (centres unmarked) [Compound 4, 7-Dimethylamino-6-demethyl-6-deoxy-9-nitrotetracycline H2SO4]	409	421	219	278	36	61	27^B percent	24^B percent	17%	5%	6%	2%	10%	+8%	3%	+4%	+5%	+14%
CN(C)c1cc(N)c(O)c2c1CC1CC3C(N(C)C)C(O)=C(C(N)=O)C(=O)C3(O)C(O)=C1C2=O (centres unmarked) [Compound 7, 9-Amino-7-dimethylamino-6-demethyl-6-deoxytetracycline H2SO4]	–	> 1000	300	335	64	> 1000	7%	14%	16%	+18%	+41^B percent	+27%	0%	0%	3%	+14^B percent	12%	+2%
CC(=O)Nc1cc(N(C)C)c2c(c1O)C(=O)C1=C(O)C3(O)C(=O)C(C(N)=O)=C(O)C(N(C)C)C3CC1C2 (centres unmarked) [Compound 8, 9-Acetamido-7-dimethylamino-6-demethyl-6-deoxytetracycline H2SO4]	> 1000	599	232	388	> 1000	> 1000	13^B percent	41^B percent	40^B percent	+10%	+5%	+13%	0%	+4%	0%	11%	3%	+2%
CC1c2ccc([N+]#N)c(O)c2C(=O)C2=C(O)C3(O)C(=O)C(C(N)=O)=C(O)C(N(C)C)C3C(O)C21 (centres unmarked) [Compound 11, 6-Deoxy-5-hydroxytetracycline-9-diazonium H2SO4]	427	> 1000	270	> 1000	96	46	16%	46^B percent	41^B percent	6%	15%	36^B percent	+3%	0%	36^B percent	–	–	–
C[C@H]1c2c(N)ccc(O)c2C(=O)C2=C(O)[C@]3(O)C(=O)C(C(N)=O)=C(O)[C@@H](N(C)C)[C@@H]3[C@@H](O)[C@@H]21.O=S(=O)(O)O [Compound 12, 7-Amino-6-deoxy-5-hydroxytetracycline H2SO4]	> 1000	> 1000	–	503	270	> 1000	+11%	+13%	+12%	–	–	–	–	–	–	–	–	–
CC1c2c(N(C)C)ccc(O)c2C(=O)C2=C(O)C3(O)C(=O)C(C(N)=O)=C(O)C(N(C)C)C3C(O)C21 (centres unmarked) [Compound 15, 7-Dimethylamino-6-deoxy-5-hydroxy-tetracycline H2SO4]	> 1000	234	738	716	402	768	–	–	–	–	–	–	–	–	–	–	–	–
CC(=O)Nc1ccc2c(c1O)C(=O)C1=C(O)C3(O)C(=O)C(C(N)=O)=C(O)C(N(C)C)C3C(O)C1C2C (centres unmarked) [Compound 16, 9-Acetamido-6-deoxy-5-hydroxytetracycline H2SO4]	452	215	> 1000	569	215	715	–	–	–	–	–	–	–	–	–	–	–	–
CC1c2c(N)cc(C(C)(C)C)c(O)c2C(=O)C2=C(O)C3(O)C(=O)C(C(N)=O)=C(O)CC3C(O)C21.O=S(=O)(O)O (centres unmarked) [Compound 49, 7-Amino-9-tertbutyl-4-dedimethyl-6-deoxy-5-hydroxy-tetracycline-H2SO4]	372	1570	141	–	489	87	27^B percent	7%	30^B percent	6%	+5%	+1%	4%	+5%	6%	11%	+2%	15%
CC1c2c([N+]#N)cc(C(C)(C)C)c(O)c2C(=O)C2=C(O)C3(O)C(=O)C(C(N)=O)=C(O)CC3C(O)C21 (centres unmarked) [Compound 50, 4-Dedimethylamino-9-tertbutyl-6-deoxy-5-hydroxytetracycline-7-diazonium H2SO4]	211	2530	48	–	34	40	5%	+2%	1%	7%	0%	2%	+14%	+17%	+10%	+14%	+8%	+13%
